Experimental data reported in patent US11180521B2, “Nicotinamide riboside analogs, pharmaceutical compositions, and uses thereof” (Metro International Biotech, LLC, priority 2018, dated 2021).

Key:
Format in all cases: in vivo, C57BL/6 mice
[1] = PK/PD duration of effect study, single oral gavage dose: administered compound level in skeletal muscle; design: key to transcyclohexyl NaR dimer concentration: BQL: Below quantitation limit; BDL: Below Detection Limit, No Peak Detected; settings: pre-dose BQL
Experimental: (§1) Transcyclohexyl nicotinic acid riboside (NaR) dimer was administered by oral gavage at a dose of 500 mg/kg in an Ethanol/PBS, pH 7.4/PEG400 (10/30/60) vehicle. The dosing volume was 5 ml/kg at a solution concentration of 100 mg/ml. The solution concentration was increased for the presence of counterion.
(§2) Animals were fasted for 16 hours prior to dosing. Samples were collected pre-dose and at 0.25, 0.75, 1, 2, 4, 8 and 24 hr post dosing. Following euthanasia, the entire liver and skeletal muscle (gastrocnemius with attached soleus muscle, bilateral) were rinsed with 0.9% saline, and frozen for later bioanalysis. Samples were maintained frozen at −80° C. until bioanalysis.
(§3) Samples were thawed, homogenized, extracted and analyzed by LC-MS on the same day. The LC used was a Shimadzu Nexera UPLC, and the mass spectrometer was an AB Sciex Qtrap 6500. Specimens were analyzed for levels of administered compound (transcyclohexyl NaR dimer), as well as for levels of NAD, NAAD, NAM, and NMN by the method of standard addition, to detect alterations from the basal levels of the analytes. Calibration standards for quantifying administered compound were prepared using transcyclohexyl NaR dimer in mouse liver or skeletal muscle homogenates. Corresponding standards for quantifying other metabolites were also prepared. Data are calculated as the mean concentration from n=6 animals per time point.

[2] = test system: NAD, NAAD, NAM, and NMN levels in skeletal muscle; experiment: PK/PD duration of effect study, single oral gavage dose: NAD, NAAD, NAM and NMN levels in skeletal muscle; design: key to NAAD concentration: BQL: Below quantitation limit; BDL: Below Detection Limit, No Peak Detected; settings: for NAAD concentration: pre-dose BDL
Experimental: as §1, §2, §3

[3] = PK/PD duration of effect study, single oral gavage dose: administered compound level in liver
Experimental: as §1, §2, §3

[4] = 0.25 hr after 500 mg/kg oral gavage
[5] = 1 hr after 500 mg/kg oral gavage
[6] = 2 hr after 500 mg/kg oral gavage
[7] = 24 hr after 500 mg/kg oral gavage

transcyclohexyl NaR dimer concentration [1, 4]: 0.0142 mmol/kg | transcyclohexyl NaR dimer concentration [1, 5]: 0.00109 mmol/kg | transcyclohexyl NaR dimer concentration [1, 6]: BQL | transcyclohexyl NaR dimer concentration ([1]; 4 hr after 500 mg/kg oral gavage): BQL | transcyclohexyl NaR dimer concentration ([1]; 8 hr after 500 mg/kg oral gavage): BQL | transcyclohexyl NaR dimer concentration [1, 7]: BQL | concentration at 0.25 h ([1]; C57BL/6, mouse, 0.25 hr after 500 mg/kg oral gavage, read-out: transcyclohexyl NaR dimer concentration): 12000 ng/g | concentration at 1 h ([1]; C57BL/6, mouse, 1 hr after 500 mg/kg oral gavage, read-out: transcyclohexyl NaR dimer concentration): 921 ng/g | % AUC Extrap of transcyclohexyl NaR dimer ([3]; 500 mg/kg oral gavage): 0.00% | AUC(0-x) of transcyclohexyl NaR dimer ([3]; 500 mg/kg oral gavage): 3.05 µg·h/g | AUC(0-∞) of transcyclohexyl NaR dimer ([3]; 500 mg/kg oral gavage): 3.05 µg·h/g | transcyclohexyl NaR dimer concentration ([3]; 0.25 hr after 500 mg/kg oral gavage, pre-dose BQL): 0.0125 mmol/kg
Structure (SMILES): CC(=O)OC[C@H]1O[C@@H]([n+]2cccc(C(=O)O[C@H]3CC[C@H](OC(=O)c4ccc[n+]([C@@H]5O[C@H](COC(C)=O)[C@@H](OC(C)=O)[C@H]5OC(C)=O)c4)CC3)c2)[C@H](OC(C)=O)[C@@H]1OC(C)=O [transcyclohexyl NaR dimer, Transcyclohexyl nicotinic acid riboside (NaR) dimer]
NMN concentration ([2]; 0.25 hr after 500 mg/kg oral gavage, pre-dose 0.00225): 0.002 mmol/kg | NAM concentration ([2]; 0.25 hr after 500 mg/kg oral gavage, pre-dose 0.159): 0.161 mmol/kg | NMN concentration ([2]; 0.25 hr after 500 mg/kg oral gavage, pre-dose 0.752): 0.667 µg/g | NAD concentration ([2]; 0.25 hr after 500 mg/kg oral gavage, pre-dose 0.781): 0.826 mmol/kg | NAM concentration ([2]; 0.25 hr after 500 mg/kg oral gavage, pre-dose 19.4): 19.7 µg/g | NAD concentration ([2]; 0.25 hr after 500 mg/kg oral gavage, pre-dose 518): 548 µg/g | NAAD concentration [2, 4]: BDL | NMN concentration ([2]; 0.75 hr after 500 mg/kg oral gavage, pre-dose 0.00225): 0.00196 mmol/kg | NAM concentration ([2]; 0.75 hr after 500 mg/kg oral gavage, pre-dose 0.159): 0.208 mmol/kg | NMN concentration ([2]; 0.75 hr after 500 mg/kg oral gavage, pre-dose 0.752): 0.656 µg/g | NAD concentration ([2]; 0.75 hr after 500 mg/kg oral gavage, pre-dose 0.781): 0.861 mmol/kg | NAM concentration ([2]; 0.75 hr after 500 mg/kg oral gavage, pre-dose 19.4): 25.3 µg/g | NAD concentration ([2]; 0.75 hr after 500 mg/kg oral gavage, pre-dose 518): 571 µg/g | NAAD concentration ([2]; 0.75 hr after 500 mg/kg oral gavage): BDL | NMN concentration ([2]; 1 hr after 500 mg/kg oral gavage, pre-dose 0.00225): 0.00173 mmol/kg | NAM concentration ([2]; 1 hr after 500 mg/kg oral gavage, pre-dose 0.159): 0.184 mmol/kg | NMN concentration ([2]; 1 hr after 500 mg/kg oral gavage, pre-dose 0.752): 0.579 µg/g | NAD concentration ([2]; 1 hr after 500 mg/kg oral gavage, pre-dose 0.781): 0.720 mmol/kg | NAM concentration ([2]; 1 hr after 500 mg/kg oral gavage, pre-dose 19.4): 22.4 µg/g | NAD concentration ([2]; 1 hr after 500 mg/kg oral gavage, pre-dose 518): 478 µg/g | NAAD concentration [2, 5]: BDL | NMN concentration ([2]; 2 hr after 500 mg/kg oral gavage, pre-dose 0.00225): 0.00191 mmol/kg | NAM concentration ([2]; 2 hr after 500 mg/kg oral gavage, pre-dose 0.159): 0.0918 mmol/kg | NMN concentration ([2]; 2 hr after 500 mg/kg oral gavage, pre-dose 0.752): 0.639 µg/g | NAD concentration ([2]; 2 hr after 500 mg/kg oral gavage, pre-dose 0.781): 0.875 mmol/kg | NAM concentration ([2]; 2 hr after 500 mg/kg oral gavage, pre-dose 19.4): 11.2 µg/g | NAD concentration ([2]; 2 hr after 500 mg/kg oral gavage, pre-dose 518): 581 µg/g | NAAD concentration [2, 6]: BDL | NMN concentration ([2]; 4 hr after 500 mg/kg oral gavage, pre-dose 0.00225): 0.00222 mmol/kg | NAM concentration ([2]; 4 hr after 500 mg/kg oral gavage, pre-dose 0.159): 0.166 mmol/kg | NMN concentration ([2]; 4 hr after 500 mg/kg oral gavage, pre-dose 0.752): 0.740 µg/g | NAD concentration ([2]; 4 hr after 500 mg/kg oral gavage, pre-dose 0.781): 0.726 mmol/kg | NAM concentration ([2]; 4 hr after 500 mg/kg oral gavage, pre-dose 19.4): 20.2 µg/g | NAD concentration ([2]; 4 hr after 500 mg/kg oral gavage, pre-dose 518): 482 µg/g | NMN concentration ([2]; 8 hr after 500 mg/kg oral gavage, pre-dose 0.00225): 0.00245 mmol/kg | NAM concentration ([2]; 8 hr after 500 mg/kg oral gavage, pre-dose 0.159): 0.170 mmol/kg | NMN concentration ([2]; 8 hr after 500 mg/kg oral gavage, pre-dose 0.752): 0.818 µg/g | NAD concentration ([2]; 8 hr after 500 mg/kg oral gavage, pre-dose 0.781): 0.648 mmol/kg | NAM concentration ([2]; 8 hr after 500 mg/kg oral gavage, pre-dose 19.4): 20.8 µg/g | NAD concentration ([2]; 8 hr after 500 mg/kg oral gavage, pre-dose 518): 430 µg/g | NMN concentration ([2]; 24 hr after 500 mg/kg oral gavage, pre-dose 0.00225): 0.00199 mmol/kg | NAM concentration ([2]; 24 hr after 500 mg/kg oral gavage, pre-dose 0.159): 0.155 mmol/kg | NMN concentration ([2]; 24 hr after 500 mg/kg oral gavage, pre-dose 0.752): 0.665 µg/g | NAD concentration ([2]; 24 hr after 500 mg/kg oral gavage, pre-dose 0.781): 0.635 mmol/kg | NAM concentration ([2]; 24 hr after 500 mg/kg oral gavage, pre-dose 19.4): 18.9 µg/g | NAD concentration ([2]; 24 hr after 500 mg/kg oral gavage, pre-dose 518): 421 µg/g | NAAD concentration [2, 7]: BDL
